# From PMC12040169 (PLOS Biology, 2025)
# Assay: in vitro
# Details: human, hela cells, % viability
row,Structure (SMILES),"viability at 28.5 h, 10 µM [%]"
1,Cc1ccccc1CCNC(=O)CCc1c(C)nc2nc(N)nn2c1C [CBK304994],93.6
2,COc1cccc(-c2cc(C(=O)N3CCC(C)CC3)n[nH]2)c1 [CBK288109],94.3
3,CC1CCN(Cc2ccc(-c3nnn(CC(=O)NCc4ccc(S(C)(=O)=O)cc4)n3)cc2)CC1 [CBK144152C],94.3
4,O=C(O)C(CCCCN1C(=O)c2ccccc2C1=O)N1C(=O)c2ccccc2C1=O (stereo not drawn) [CBK265250],91.7
5,COc1ccc([N+](=O)[O-])cc1NC(=O)c1nc(C)c(C)nc1C(=O)O [CBK103387],82.6
6,CC1CCc2c(sc(NC(=O)c3ccn(C)n3)c2C#N)C1 (stereo not drawn) [CBK304682],89.8
7,CCN(CC)CC(=O)Nc1ccc(Br)cc1C(=O)c1ccccc1 [CBK262983],109
8,CN(C)Cc1c(O)ccc2occ(C(=O)c3cccs3)c12 [CBK261959C],103
9,COc1ccccc1C(=O)Nc1ccc2nc(SCC(=O)NC3CC3)sc2c1 [CBK070791],92.7
10,CC(=O)Cn1c(CN2CCOCC2)nc2c1c(=O)n(C)c(=O)n2C [CBK269508],97.5
11,O=C(c1ccc(F)cc1)N1CCC[C@@H]1Cn1c(=O)oc2ccccc21 [CBK284529],89.4
12,CCN(CC)CCCNC(=O)N1CCCC(C(=O)N(CC)CC)C1 (stereo not drawn) [CBK156149],94.1
13,COc1cccc(-c2ccc(NC(=O)CCC3C(=O)Nc4ccccc43)cc2)c1 (stereo not drawn) [CBK285851],116
14,O=C(O)C1(NS(=O)(=O)c2ccc(F)c(Cl)c2)CCCCC1 [CBK267276],98.2
15,CCOC(=O)c1cccc(NS(=O)(=O)c2ccc(Br)cc2)c1 [CBK034346],97.7
16,O=C(CN1C(=O)N2CCCN=C2c2ccccc21)N1CCCCC1 [CBK284395],85.8
17,O=C(c1cc2cc(F)ccc2[nH]1)N1CCN(c2ncccn2)CC1 [CBK107280],91.8
18,CC(C)c1cccc(-n2cc(O)c(C(=O)NCCC(=O)N(C)C)n2)c1 [CBK305234],86.5
19,Sc1nnc(-c2ccncc2)n1/N=C/c1c[nH]c2ccccc12 [CBK265272],85.8
20,COc1ccc2[nH]c3c(c2c1)CCNC31CCN(CCCN2C(=O)C3CCCCC3C2=O)C1 (stereo not drawn) [CBK059518],88.9
21,O=C(C1CCCCC1)N1CC(n2nc(-c3ccccc3)ccc2=O)C1 [CBK284616],92.8

row,Structure (SMILES),"viability at 28.5 h, 10 µM [%]"
1,NC(=O)Nc1ccc(C(=O)N2CCN(c3ccccc3)CC2)cc1 [CBK306392],101
2,CC(C)n1nccc1C(=O)NCC(c1ccccc1F)N1CCCC1 (stereo not drawn) [CBK283032],94.1
3,Cc1nn(CCC(=O)NC(c2ccccc2)c2cccnc2)c(C)c1C (stereo not drawn) [CBK282547],86.3
4,COCCn1c(SC)nc2sc(-c3ccccc3)cc2c1=O [CBK295200],89.8
5,O=C(Cn1c(=O)oc2ccccc21)Nc1ccc(S(=O)(=O)Nc2nccs2)cc1 [CBK267686],80.2
6,CCn1c2cc(C)sc2c2cnn(CC(=O)NC(C)C)c(=O)c21 [CBK284172],85.8
7,Cc1sc(NC(=O)CC(C)(C)CC(=O)Nc2sc(C)c(C)c2C(=O)O)c(C(=O)O)c1C [CBK296094],98.7
8,COc1ccc2c(c1)C1(CC(=O)N(CCc3scnc3C)C1=O)C(=O)N2C (stereo not drawn) [CBK075213],91.6
9,COc1ccc(C)cc1C1(CNC(=O)C2CC2C(=O)O)CCOCC1 (stereo not drawn) [CBK304492],82
10,COc1ccccc1N1CCN(C(=O)Nc2ccc(Cl)cc2)CC1 [CBK155597],94.5
11,Cn1c(=O)n(C)c2cc(CNC(=O)CC3COCCN3)ccc21 (stereo not drawn) [CBK307252],103
12,Cc1cc(C)nc(N2CCC(C3CC=CCN(CCc4ccccc4)C3=O)CC2)n1 (stereo not drawn) [CBK285575],105
13,CCc1nnc(NS(=O)(=O)c2ccc(NC(=O)c3ccc(Cl)cc3Cl)cc2)s1 [CBK045493],88.5
14,Cc1cc(C(=O)Cn2nc(C(=O)O)c3ccccc3c2=O)c(C)n1Cc1ccccc1Cl [CBK297504],111
15,CCOC(=O)CN1C(=O)S/C(=C/c2cc(C)n(-c3cc(C)ccn3)c2C)C1=O [CBK264731],95.2
16,COc1ccc(C2CC(c3ccc(NS(C)(=O)=O)cc3)=NN2C(=O)CCCC(=O)O)cc1 (stereo not drawn) [CBK297780],116
17,CCCC1COC(c2ccc(C#N)cc2)OC1 (stereo not drawn) [CBK033941],94.5
18,Cc1nc(S(=O)(=O)Cc2nccn2C)n(CC2CCCO2)c1C (stereo not drawn) [CBK304012],87
19,COC(=O)c1ccc2c(c1)C(=O)N(c1ccc(C(=O)OCC(C)C)cc1)C2=O [CBK156802],92.1
20,CC(=O)N1CCc2c(c3cccc(Br)c3n2Cc2ccccc2)C1 [CBK024402],93.9
21,COc1ccc(OCCNC(=O)c2ccc(-c3cccc(N(C)C)c3)nc2N(C)C(C)=O)cc1 [CBK076587],92.8

row,Structure (SMILES),"viability at 28.5 h, 10 µM [%]"
1,N#Cc1c(NC(=O)CN2CCc3ccccc3C2)sc2c1CCCC2 [CBK269126],105
2,CCN(CC)CC(C)C(O)(c1ccccc1)c1ccccc1 (stereo not drawn) [CBK012065C],95
3,FC(F)(F)c1cccc(Sc2cccs2)n1 [CBK115242],91.5
4,CCc1nc(NC(=O)c2ccnc(Cl)c2)sc1C [CBK298287],101
5,CN(C)CCCC(=O)NCc1ccc(-c2csnn2)cc1 [CBK149288],91
6,CCOc1ccccc1-c1ccccc1NC(=O)c1cc(=O)n(C)c2ccccc12 [CBK285843],100
7,Clc1cccc(Nc2cncc(-c3cccc4ccccc34)n2)c1 [CBK065764],93.4
8,CC(=O)Nc1ccc(Nc2ncnc3scc(-c4ccccc4)c23)cc1 [CBK264930],93.6
9,COc1ccccc1C(=O)Nc1nc2ccc(NC(C)=O)cc2s1 [CBK287303],88.3
10,O=C(Nc1cccc([N+](=O)[O-])c1)c1ccc2nc(-c3ccccn3)c(-c3ccccn3)nc2c1 [CBK265137],101
11,Cn1c(CCC(=O)Nc2ccc3c(c2)CN(Cc2ccccc2)C3)nc2ccccc21 [CBK285990],81.2
12,CC(C)NC(=O)N1CCN2C(=O)N(c3ccccc3)C(=O)[C@@H]2C1 [CBK289579],99.4
13,CC1(C)CCCN(Cc2nnnn2-c2ccc(S(C)(=O)=O)cc2)C1 [CBK306181],91.7
14,O=C(O)c1cc(S(=O)(=O)NCc2ccccc2)ccc1Br [CBK261768],96.9
15,Oc1ccc(Cn2c(-c3ccc(O)cc3)nc3ccccc32)cc1 [CBK291187],90.3
16,Cn1nccc1C(=O)N[C@H]1C2CCCCC2[C@@H]1c1ccccc1 (stereo partly drawn) [CBK285127],102
17,O=C(NCCc1ccco1)c1ncoc1-c1ccc(F)cc1 [CBK282247],104
18,CS(=O)(=O)c1sc(C(=O)O)c2c1C=CCC2 [CBK005513],87.3
19,Oc1cccnc1SCc1nc2ccccc2s1 [CBK016367],112
20,S=c1[nH]nc(Cc2cccc3ccccc23)n1-c1ccccc1 [CBK265052],97.3
21,CC(C)[C@@H](Cn1nc(-c2cccs2)ccc1=O)NC(=O)C1CC1 [CBK284297],87.4
